Measured values from patent US7910559B2, “Decladinosyl-macrolides with anti-inflammatory activity” (GlaxoSmithKline istrazivacki centar Zagreb d.o.o., priority 2005, dated 2011).
Like-named read-outs stand apart in the source and are kept apart here.

Legend:
Format in all cases: cell-based
human TNF-α = test: Inhibition of TNF-α production by stimulated human peripheral blood leukocytes in vitro (ELISA); conditions: Homo sapiens, Leukocyte, PBL, read-out: Percentage of inhibition of TNF-α production; for inhibition at 10 µM: compound 10 μM; for inhibition at 50 µM: compound 50 μM
In short: (§1)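 Human PBL from healthy donors preincubated 2 h at 37 °C with compound, then stimulated overnight with 2 μg/mL LPS, 1 μg/mL PMA or 120 μg/mL zymosan. Supernatant cytokines measured by sandwich ELISA. % inhibition is relative to stimulated, untreated cells.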

human IL-1β = test: Inhibition of IL-1β production by stimulated human peripheral blood leukocytes in vitro (ELISA); conditions: Homo sapiens, Leukocyte, PBL, read-out: Percentage of inhibition of IL-1β production; for inhibition at 10 µM: compound 10 μM; for inhibition at 50 µM: compound 50 μM
In short: as §1

[1] = test system: human peripheral blood mononuclear cells (PBMC); test: Human peripheral blood mononuclear cell proliferation in vitro ((3H)thymidine incorporation); conditions: Homo sapiens, PBMC, read-out: Percentage of inhibition of proliferation of stimulated PBMC; for inhibition at 10 µM: compound 10 μM; for inhibition at 50 µM: compound 50 μM
Experimental: Substances, used in in vitro experiments, were dissolved in dimethyl sulfoxide (DMSO) (Kemika, Croatia) at concentrations of 50 mM and 10 mM and were further diluted to the final concentrations of […] in 1 mL Dulbecco's modified Eagle medium (DMEM) supplemented with 1% heat inactivated fetal bovine serum (FBS), 1% glutamax, 50 U/ml penicillin, 50 μg/ml streptomycin and 2.5 μg/mL Fungizone (amphotericin B). Media and all media supplements were purchased from Gibco, Australia, except FBS that was from Sigma, USA.
Heparinized peripheral blood was obtained from healthy donors, and peripheral blood mononuclear cells (PBMC) were isolated by Histopaque 1077 (Sigma, USA) density centrifugation at 400 g for 30 minutes. Collected PBMC were centrifuged in plasma at 400 g/10 min, resuspended and washed in RPMI 1640 (Institute of Immunology, Croatia) by centrifugation.
Influence of substances at two different concentrations (50 μM and 10 μM) on proliferation of human peripheral blood mononuclear cells (PBMC) was assessed.
Heparinized peripheral blood was obtained from healthy donors, and PBMC were isolated by Histopaque 1077 (Sigma, USA) density centrifugation at 400 g for 30 minutes. 5×10^4 cells/well were cultured for 3 days in the RPMI medium as described above, in the presence (positive control) or absence (negative control) of stimulators [PHA (2.5 μg/mL) (Sigma, USA) or both PMA (10 ng/mL) (Sigma, USA) and ionomycin (500 ng/mL) (Calbiochem, USA)] and tested substances at 37° C. in 5% CO2 and 90% humidity. The cells were pulsed with 1 μCi of (^3H)thymidine (Amersham, USA) per well during the last 18 h of the cultures and were harvested on a 96-well filter (Packard Bioscience, USA) with a multiple cell harvester (Packard, USA). The incorporation of (^3H)thymidine in activated cells was measured by TopCount NXT (Packard, USA).
Inhibition of cell proliferation (as a percentage) was calculated using the following formula: % inhibition=(1−(^3H)thymidine incorporation expressed in counts per minute (cpm) in sample/(3H)thymidine incorporation expressed in cpm in positive control)×100 where “positive control” refers to stimulated samples not treated with substances.

A549 = conditions: human, 24 h
In short: (§2)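 MTT cytotoxicity read-out: cells were exposed to compound at 50 μM and 12.5 μM for 24 hours at 37° C in RPMI, then MTT was added for 0.5-2 hours. Formazan absorbance at 490 nm gave the percentage of viable cells relative to untreated cells.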

THP-1 = conditions: human, 24 h
In short: as §2

Hep G2 = conditions: human, 24 h
In short: as §2

human IL-8 = test: Inhibition of IL-8 production by stimulated human peripheral blood leukocytes in vitro (ELISA); conditions: Homo sapiens, Leukocyte, PBL, read-out: Percentage of inhibition of IL-8 production; for inhibition at 10 µM: compound 10 μM; for inhibition at 50 µM: compound 50 μM
In short: as §1

human IL-6 = test: Inhibition of IL-6 production by stimulated human peripheral blood leukocytes in vitro (ELISA); conditions: Homo sapiens, Leukocyte, PBL, read-out: Percentage of inhibition of IL-6 production; for inhibition at 10 µM: compound 10 μM; for inhibition at 50 µM: compound 50 μM
In short: as §1

Row | SMILES | inhibition at 10 µM (human TNF-α; LPS stimulation) | inhibition at 50 µM (human TNF-α; LPS stimulation) | inhibition at 10 µM (human TNF-α; PMA stimulation) | inhibition at 50 µM (human TNF-α; PMA stimulation) | inhibition at 10 µM (human TNF-α; zymosan stimulation) | inhibition at 50 µM (human TNF-α; zymosan stimulation) | inhibition at 10 µM (human IL-1β; LPS stimulation) | inhibition at 50 µM (human IL-1β; LPS stimulation) | inhibition at 10 µM (human IL-1β; PMA stimulation) | inhibition at 50 µM (human IL-1β; PMA stimulation) | inhibition at 10 µM (human IL-1β; zymosan stimulation) | inhibition at 50 µM (human IL-1β; zymosan stimulation) | inhibition at 10 µM ([1]; PHA stimulation) | inhibition at 50 µM ([1]; PHA stimulation) | inhibition at 10 µM ([1]; PMA + ionomycin stimulation) | inhibition at 50 µM ([1]; PMA + ionomycin stimulation) | Percentage of viable cells after treatment (A549; 12.5 μM) | Percentage of viable cells after treatment (A549; 50 μM) | Percentage of viable cells after treatment (THP-1; 12.5 μM) | Percentage of viable cells after treatment (THP-1; 50 μM) | also measured
1 | CC[C@H]1OC(=O)[C@H](C)[C@@H](OC(=O)CCN(CC)CC)[C@H](C)[C@@H](O[C@@H]2O[C@H](C)C[C@H](N(C)C)[C@H]2O)[C@](C)(OC)C[C@@H](C)C(=O)[C@H](C)[C@@H](O)[C@]1(C)O [Example 5, 3-O-(3-Diethylamino-propionyl)-3-O-decladinosyl-6-O-methyl-erythromycin A] | 3% | 92% | 29% | 100% | 17% | 100% | 75% | 80% | 91% | 100% | 68% | 100% | 99% | 100% | 90% | 100% | 100% | 100% | 100% | >80% | Percentage of viable cells after treatment (Hep G2; 12.5 μM): >86%; Percentage of viable cells after treatment (Hep G2; 50 μM): 100%; inhibition at 10 µM (human IL-8; LPS stimulation): 22%; inhibition at 50 µM (human IL-8; LPS stimulation): 95%; inhibition at 10 µM (human IL-8; PMA stimulation): 48%; inhibition at 50 µM (human IL-8; PMA stimulation): 83%; inhibition at 10 µM (human IL-8; zymosan stimulation): 48%; inhibition at 50 µM (human IL-8; zymosan stimulation): 100%; inhibition at 10 µM (human IL-6; LPS stimulation): 38%; inhibition at 50 µM (human IL-6; LPS stimulation): 100%; inhibition at 10 µM (human IL-6; PMA stimulation): 78%; inhibition at 50 µM (human IL-6; PMA stimulation): 100%; inhibition at 10 µM (human IL-6; zymosan stimulation): 51%; inhibition at 50 µM (human IL-6; zymosan stimulation): 100%
2 | CC[C@H]1OC(=O)[C@H](C)[C@@H](O[C@H]2C[C@@](C)(OC)[C@@H](O)[C@H](C)O2)[C@H](C)[C@@H](O[C@@H]2O[C@H](C)C[C@H](N(C)C)[C@H]2O)[C@](C)(O)C[C@@H](C)CN(C)[C@H](C)[C@@H](O)[C@]1(C)O [azithromycin, reference compound] | 36% | 20% | 0% | 0% | 6% | 64% | 28% | 48% | 0% | 0% | 20% | 75% | 5% | 29% | 9% | 31% | 100% | 100% | 100% | >95% | Percentage of viable cells after treatment (Hep G2; 12.5 μM): 100%; Percentage of viable cells after treatment (Hep G2; 50 μM): >95%; inhibition at 10 µM (human IL-8; LPS stimulation): 0%; inhibition at 50 µM (human IL-8; LPS stimulation): 0%; inhibition at 10 µM (human IL-8; PMA stimulation): 0%; inhibition at 50 µM (human IL-8; PMA stimulation): 0%; inhibition at 10 µM (human IL-8; zymosan stimulation): 0%; inhibition at 50 µM (human IL-8; zymosan stimulation): 0%; inhibition at 10 µM (human IL-6; LPS stimulation): 15%; inhibition at 50 µM (human IL-6; LPS stimulation): 40%; inhibition at 10 µM (human IL-6; PMA stimulation): 0%; inhibition at 50 µM (human IL-6; PMA stimulation): 0%; inhibition at 10 µM (human IL-6; zymosan stimulation): 20%; inhibition at 50 µM (human IL-6; zymosan stimulation): 75%
